Assay results from ChEMBL document CHEMBL1124817, “Synthesis and Ca2+ antagonistic activity of 2-[2-[(aminoalkyl)oxy]-5-methoxyphenyl]-3,4-dihydro-4-methyl-3-oxo-2H- 1,4-benzothiazines” (J Med Chem, 1990).

Experiments:
[1] = Selectivity ratio of IC50 for [Ca2+] antagonistic activity in aorta / IC50 for suppressive effect on rate of contraction; assay type: functional
Cavia porcellus [2] = species on record: Cavia porcellus; experiment: Inhibitory concentration required to suppress the contractile force of guinea pig right atria; assay type: functional
Cavia porcellus [3] = species on record: Cavia porcellus; experiment: Inhibitory concentration required to suppress the rate of contraction of guinea pig right atria; assay type: functional
Cavia porcellus [4] = species on record: Cavia porcellus; experiment: Inhibitory concentration required to block Ca+2 induced contraction of K+ depolarized guinea pig taenia cecum; assay type: functional, Caecum
[5] = Selectivity ratio of IC50 for [Ca2+] antagonistic activity in aorta / IC50 for suppressive effect on contractile force; assay type: functional
Cavia porcellus [6] = species on record: Cavia porcellus; experiment: Inhibitory concentration required to block Ca+2 induced contraction of K+ depolarized guinea pig aorta; assay type: functional

SMILES | Ratio [1] | IC50 (Cavia porcellus [2]) [nM] | IC50 (Cavia porcellus [3]; read-out: IC50) [nM] | IC50 (Cavia porcellus [4]; Cavia porcellus, Caecum) [nM] | Ratio [5] | IC50 (Cavia porcellus [6]) [nM] | IC50 (Cavia porcellus [4]) [nM] | IC50 (Cavia porcellus [3]) [nM]
COc1ccc(OCCCCN(C)CCOc2ccc(OC)c(OC)c2)c(C2Sc3ccccc3N(C)C2=O)c1 (stereo unspecified) | 4.8 | 440 | 600 | 230 | 6.6 | 2900 |  | 
COc1ccc(OCCCCN(C)CCOc2ccc3c(c2)OCO3)c(C2Sc3ccccc3N(C)C2=O)c1 (stereo unspecified) | 1.7 | 94 | 190 | 170 | 3.5 | 330 |  | 
COc1ccc(OCCN(C)CCCCOc2ccc(OC)cc2C2Sc3ccccc3N(C)C2=O)cc1 (stereo unspecified) |  |  |  | 530 |  |  |  | 
COc1ccc(OCCCN(C)CCOc2ccc3c(c2)OCO3)c(C2(C(C)C)Sc3ccccc3N(C)C2=O)c1 (stereo unspecified) |  |  |  | > 10000 |  |  |  | 
COc1ccc(OCCCCN(C)CCOc2cc(OC)c(OC)c(OC)c2)c(C2Sc3ccccc3N(C)C2=O)c1 (stereo unspecified) | 7.9 | 200 | 190 | 160 | 7.5 | 1500 |  | 
COc1ccc(OCCCCN(C)CCc2cc(OC)c(OC)c(OC)c2)c(C2Sc3ccccc3N(C)C2=O)c1 (stereo unspecified) |  |  |  | 350 |  |  |  | 
COc1ccc(OCCCN(CCOc2ccc3c(c2)OCO3)C(C)C)c(C2Sc3ccccc3N(C)C2=O)c1 (stereo unspecified) |  |  |  | 1900 |  |  |  | 
COc1ccc(OCCCN(C)CCc2cc(OC)c(OC)c(OC)c2)c(C2Sc3ccccc3N(C)C2=O)c1 (stereo unspecified) | 6 | 520 | 400 | 270 | 4.6 | 2400 |  | 
COc1ccc(OCCCNCCOc2ccc3c(c2)OCO3)c(C2Sc3ccccc3N(C)C2=O)c1 (stereo unspecified) |  |  |  | 490 |  |  |  | 
COc1ccc(OCCCN(C)CCOc2ccc3c(c2)OCO3)c(C2(C)Sc3ccccc3N(C)C2=O)c1 (stereo unspecified) |  |  |  | 2100 |  |  |  | 
COc1cc(OC)cc(OCCN(C)CCCOc2ccc(OC)cc2C2Sc3ccccc3N(C)C2=O)c1 (stereo unspecified) |  |  |  | 550 |  |  |  | 
COc1ccc(OCCCN(C)CCOc2ccc3c(c2)OCO3)c(C2(SC)Sc3ccccc3N(C)C2=O)c1 (stereo unspecified) |  |  |  | 1500 |  |  |  | 
COc1ccc(OCCCN(C)CCOc2ccc3c(c2)CCC3)c(C2Sc3ccccc3N(C)C2=O)c1 (stereo unspecified) |  |  |  | > 10000 |  |  |  | 
COc1ccc(OCCCN(C)CCOc2cc(OC)c(OC)c(OC)c2)c(C2Sc3ccccc3N(C)C2=O)c1 (stereo unspecified) | 8.2 | 370 | 500 | 230 | 11.1 | 4100 |  | 
COc1ccc(OCCCN(C)CCOc2c(OC)cccc2OC)c(C2Sc3ccccc3N(C)C2=O)c1 (stereo unspecified) |  |  |  | 510 |  |  |  | 
COc1ccc(OCCCN(C)CCOc2ccc3c(c2)OCO3)c(C2(OC)Sc3ccccc3N(C)C2=O)c1 (stereo unspecified) |  |  |  | 250 |  |  |  | 
COc1ccc(OCCCN(C)CCOc2ccc3c(c2)OCO3)c(C2CN(C)c3ccccc3S2)c1 (stereo unspecified) |  |  |  | > 10000 |  |  |  | 
COc1ccc(OCCCN(C)CCOc2ccc3c(c2)OCO3)c(C2Sc3ccccc3N(C)C2=S)c1 (stereo unspecified) |  |  |  | > 10000 |  |  |  | 
COc1ccc(OCCCN(C)CCOc2ccc3c(c2)OCO3)c(C2Sc3ccccc3N(C)C2=O)c1 (stereo in doubt; 15) | 1.1 | 310 | 590 |  | 2.1 | 660 | 180 | 
COc1ccc(OCCCN(C)CCOc2ccc3c(c2)OCO3)c(C2Sc3ccccc3N(C)C2=O)c1 (stereo in doubt; (-)-15) |  |  |  |  |  |  | 600 | 
COc1ccc([C@@H]2Sc3ccccc3N(CCN(C)C)C(=O)[C@@H]2OC(C)=O)cc1 [DILTIAZEM] | 7.5 | 95 | 600 |  | 47.4 | 4500 |  | 
COc1ccc(OCCCN(C)CCOc2ccc3c(c2)OCO3)c([C@H]2Sc3ccccc3N(C)C2=O)c1 [SEMOTIADIL] | 1.3 | 68 | 180 | 89 | 3.4 | 230 |  | 
COc1ccc(CCN(C)CCCC(C#N)(c2ccc(OC)c(OC)c2)C(C)C)cc1OC (stereo unspecified) [VERAPAMIL] | 3 | 35 |  |  | 17.7 | 620 |  | 210
